The source of these data is patent US8063065B2, “Azaindazole compounds as CCR1 receptor antagonists” (Boehringer Ingelheim International GmbH, priority 2008, dated 2011).

The experiment deals with T1, CCR1 (Homo sapiens, UniProt P32246).
T1 sequence (P32246 1-355): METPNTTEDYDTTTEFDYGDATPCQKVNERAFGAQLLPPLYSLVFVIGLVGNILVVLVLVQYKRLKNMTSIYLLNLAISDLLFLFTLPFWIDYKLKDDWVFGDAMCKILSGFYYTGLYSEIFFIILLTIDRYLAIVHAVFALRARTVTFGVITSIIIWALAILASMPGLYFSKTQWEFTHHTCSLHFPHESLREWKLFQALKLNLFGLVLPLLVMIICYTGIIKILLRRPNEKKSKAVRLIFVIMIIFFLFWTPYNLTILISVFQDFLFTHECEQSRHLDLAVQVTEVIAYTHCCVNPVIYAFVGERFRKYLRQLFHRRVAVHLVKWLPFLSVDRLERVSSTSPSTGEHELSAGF
Nature of the experiment: Method B: calcium flux in CCR1 transfected cells (Calcium 4 dye, […] FDSS6000), block of the CCR1/MIP-1α interaction. Conditions: Method B: Calcium 4 dye, MIP-1alpha at EC80. It is filed as cell-based. The method, boiled down:
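Calcium flux on an FDSS6000 was triggered by MIP-1α at its EC80 in stably CCR1/G-alpha-16-expressing non-adherent cells. Before this, Calcium 4-loaded cells were preincubated with compound in HBSS, 20 mM HEPES pH 7.4, 1% DMSO: 30 min at 37 C plus 30 min at room temperature. Ten 4-fold doses began at 3,000 nM, with ±MIP-1α DMSO wells as controls.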

One may read the IC50 as the concentration that gives 50% inhibition. Take `CC[C@H](NC(=O)c1cncc2c1cnn2-c1ccc(F)cc1)[C@@H]1CCN(S(C)(=O)=O)[C@@H](C(N)=O)C1` [1-(4-Fluorophenyl)-1H-pyrazolo[3,4-c]pyridine-4-carboxylic acid [(S)-1-((2R,4R)-2-carbamoyl-1-methanesulfonyl-piperidin-4-yl)-propyl]-amide]: the IC50 is 10 nM.

Regarding `CC[C@H](NC(=O)c1cncc2c1cnn2-c1ccc(F)cc1)c1ccnc(SC)c1` [1-(4-Fluorophenyl)-1H-pyrazolo[3,4-c]pyridine-4-carboxylic acid [(S)-1-(2-methylsulfanyl-pyridin-4-yl)-propyl]-amide], the IC50 was found to be 0.2 nM.

On to `CCC(NC(=O)c1cncc2c1cnn2-c1ccc(F)cc1)C1CCN(S(C)(=O)=O)CC1` (centres unmarked) [1-(4-Fluorophenyl)-1H-pyrazolo[3,4-c]pyridine-4-carboxylic acid [1-(1-methanesulfonyl-piperidin-4-yl)-propyl]-amide], for which the IC50 worked out at 2 nM.

Regarding `COC(=O)C[C@H](NC(=O)c1cncc2c1cnn2-c1ccc(F)cc1)c1ccnc(S(C)(=O)=O)c1` [(S)-3-{[1-(4-Fluorophenyl)-1H-pyrazolo[3,4-c]pyridine-4-carbonyl]-amino}-3-(2-methanesulfonyl-pyridin-4-yl)-propionic acid methyl ester], the IC50 worked out at 4 nM.

Take `CS(=O)(=O)c1cc([C@H](CO)NC(=O)c2cncc3c2cnn3-c2ccc(F)cc2)ccn1` [1-(4-Fluorophenyl)-1H-pyrazolo[3,4-c]pyridine-4-carboxylic acid [(R)-2-hydroxy-1-(2-methanesulfonyl-pyridin-4-yl)-ethyl]-amide]: the IC50 is 6 nM.

In the case of `CC[C@H](NC(=O)c1cncc2c1cnn2-c1ccc(F)cc1)c1csc(S(C)(=O)=O)n1` [1-(4-Fluorophenyl)-1H-pyrazolo[3,4-c]pyridine-4-carboxylic acid [(S)-1-(2-methanesulfonyl-thiazol-4-yl)-propyl]-amide], the IC50 worked out at 0.4 nM.

As for `CCC(CC)(NC(=O)c1cncc2c1cnn2-c1ccc(F)cc1)c1cnc(S(C)(=O)=O)s1` [1-(4-Fluorophenyl)-1H-pyrazolo[3,4-c]pyridine-4-carboxylic acid [1-ethyl-1-(2-methanesulfonyl-thiazol-5-yl)-propyl]-amide], the IC50 is 28 nM.

Consider `CC[C@H](NC(=O)c1cncc2c1cnn2-c1ccc(F)cc1)c1cc(Br)no1` [1-(4-Fluorophenyl)-1H-pyrazolo[3,4-c]pyridine-4-carboxylic acid [(S)-1-(3-bromo-isoxazol-5-yl)-propyl]-amide], for which the IC50 turned out to be 28 nM.

Turning to `CS(=O)(=O)c1cc(CNC(=O)c2cncc3c2cnn3-c2ccc(F)cc2)cc(Br)n1` [1-(4-Fluorophenyl)-1H-pyrazolo[3,4-c]pyridine-4-carboxylic acid (2-bromo-6-methanesulfonyl-pyridin-4-ylmethyl)-amide], the IC50 was 1 nM.

For the molecule `C[C@H](NC(=O)c1cncc2c1cnn2-c1ccc(F)cc1)c1cccc(S(N)(=O)=O)n1` [1-(4-Fluorophenyl)-1H-pyrazolo[3,4-c]pyridine-4-carboxylic acid [(S)-1-(6-sulfamoyl-pyridin-2-yl)-ethyl]-amide], the half-maximal inhibitory concentration (IC50) stood at 15 nM.

In the case of `CN(CC(N)=O)c1cc(CNC(=O)c2cncc3c2cnn3-c2ccc(F)cc2)cc(S(C)(=O)=O)n1` [1-(4-Fluorophenyl)-1H-pyrazolo[3,4-c]pyridine-4-carboxylic acid [2-(carbamoylmethyl-methyl-amino)-6-methanesulfonyl-pyridin-4-ylmethyl]-amide], the IC50 stood at 3 nM.

Consider `C[C@H](NC(=O)c1cncc2c1cnn2-c1ccc(F)cc1)c1ccnc(S(N)(=O)=O)c1` [1-(4-Fluorophenyl)-1H-pyrazolo[3,4-c]pyridine-4-carboxylic acid [(S)-1-(2-sulfamoyl-pyridin-4-yl)-ethyl]-amide], for which the IC50 is 3 nM.

With `CC[C@H](NC(=O)c1cncc2c1cnn2-c1ccc(F)cc1)c1cncc(S(N)(=O)=O)c1` [1-(4-Fluorophenyl)-1H-pyrazolo[3,4-c]pyridine-4-carboxylic acid [(S)-1-(5-sulfamoyl-pyridin-3-yl)-propyl]-amide], the IC50 stood at 0.3 nM.

For the molecule `CC(C)(NC(=O)c1cncc2c1cnn2-c1ccc(F)cc1)c1ccnc(Br)c1` [1-(4-Fluorophenyl)-1H-pyrazolo[3,4-c]pyridine-4-carboxylic acid [1-(2-bromo-pyridin-4-yl)-1-methyl-ethyl]-amide], the IC50 turned out to be 14 nM.

On to `CCOC(=O)CS(=O)(=O)c1cc(CNC(=O)c2cncc3c2cnn3-c2ccc(F)cc2)ccn1` [[4-({[1-(4-Fluorophenyl)-1H-pyrazolo[3,4-c]pyridine-4-carbonyl]-amino}-methyl)-pyridine-2-sulfonyl]-acetic acid ethyl ester], for which the IC50 came to 4 nM.

With `CC[C@H](NC(=O)c1cncc2c1cnn2-c1ccc(F)cc1)c1ccnc(Cl)c1` [1-(4-Fluorophenyl)-1H-pyrazolo[3,4-c]pyridine-4-carboxylic acid [(S)-1-(2-chloropyridin-4-yl)-propyl]-amide], the IC50 turned out to be 0.2 nM.

Take `CC[C@H](NC(=O)c1cncc2c1cnn2-c1ccc(F)cc1)c1ccc(S(C)(=O)=O)nc1` [1-(4-Fluorophenyl)-1H-pyrazolo[3,4-c]pyridine-4-carboxylic acid [(S)-1-(6-methanesulfonyl-pyridin-3-yl)-propyl]-amide]: the IC50 turned out to be 1 nM.

On to `CC[C@H](NC(=O)c1cncc2c1cnn2-c1ccc(F)cc1)c1nc(C(=O)NC)cs1` [1-(4-Fluorophenyl)-1H-pyrazolo[3,4-c]pyridine-4-carboxylic acid [(S)-1-(4-methylcarbamoyl-thiazol-2-yl)-propyl]-amide], for which the IC50 is 3 nM.

Turning to `CS(=O)(=O)c1cc(CNC(=O)c2cncc3c2cnn3-c2ccc(F)cc2)cc(NCC(N)=O)n1` [1-(4-Fluorophenyl)-1H-pyrazolo[3,4-c]pyridine-4-carboxylic acid [2-(carbamoylmethyl-amino)-6-methanesulfonyl-pyridin-4-ylmethyl]-amide], the half-maximal inhibitory concentration (IC50) was 11 nM.

On to `C[C@H](NC(=O)c1cncc2c1cnn2-c1ccc(F)cc1)c1cc(S(C)(=O)=O)[nH]c(=O)c1` [1-(4-Fluorophenyl)-1H-pyrazolo[3,4-c]pyridine-4-carboxylic acid [(S)-1-(6-methanesulfonyl-2-oxo-1,2-dihydropyridin-4-yl)-ethyl]-amide], for which the IC50 was found to be 3 nM.

Turning to `CCC[C@@H](NC(=O)c1cncc2c1cnn2-c1ccc(F)cc1)c1ccc(OC)c(Br)c1` [1-(4-Fluorophenyl)-1H-pyrazolo[3,4-c]pyridine-4-carboxylic acid [(R)-1-(3-bromo-4-methoxy-phenyl)-butyl]-amide], the 50% inhibitory concentration (IC50) turned out to be 0.3 nM.

With `CC[C@H](NC(=O)c1cncc2c1cnn2-c1ccc(F)cc1)c1csc(S(C)(=O)=O)c1` [1-(4-Fluorophenyl)-1H-pyrazolo[3,4-c]pyridine-4-carboxylic acid [(S)-1-(5-methanesulfonyl-thiophen-3-yl)-propyl]-amide], the IC50 was found to be 0.3 nM.

With `CS(=O)(=O)c1csc(CNC(=O)c2cncc3c2cnn3-c2ccc(F)cc2)c1` [1-(4-Fluorophenyl)-1H-pyrazolo[3,4-c]pyridine-4-carboxylic acid (4-methanesulfonyl-thiophen-2-ylmethyl)-amide], the half-maximal inhibitory concentration (IC50) is 5 nM.
